This passage reports inhibition results from PubChem BioAssay AID2005 (Sanford-Burnham Center for Chemical Genomics, 2009).

The nature of the test: EGFP reporter destabilization counter-screen – F442A EGFP cells, fluorescence, counter-screen for p/CIP destabilizer project, dose response (AID 2005).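 Further: cells express EGFP alone from a CMV promoter as a counter screen for p/CIP-EGFP.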 The conditions noted are these: F442A EGFP cells, EGFP fluorescence, 16 h, stronger effect = higher value. In general terms: The purpose of a counterscreen is to sort out artefacts and off-target activity.

Active and inactive are the calls of the source.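 How the source made its calls: active means plate Z score at or below -3, or inhibition of at least 30% at 20 µM; inactive means the rest.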

One may read the inhibition as the drop in the measured response relative to a control, in per cent. As for `CCOC(=O)C(OC(=O)c1sc(=S)n(C)c1C)C(C)=O` (configuration not stated), the inhibition (EGFP decrease, at 10 µM) turned out to be 27.1% and the inhibition (at 20 µM) was 35.7%.
Regarding `O=C(CSc1nnc(-c2ccccc2F)o1)OCc1ccccc1`, the inhibition runs as follows: (EGFP decrease, at 10 µM) 15.7%; (at 20 µM) 39%.
For the molecule `O=C(CCCOc1ccccc1)Nc1nncs1`, the inhibition reads like this: (EGFP decrease, at 10 µM) -15.9%; (at 20 µM) 22.7% (inactive).
Take `Cc1sc2nc(COC(=O)c3ccc(N4CCCC(C)C4)c([N+](=O)[O-])c3)[nH]c(=O)c2c1C` (configuration not stated): the inhibition (EGFP decrease, at 10 µM) was determined as 26.5% and the inhibition (at 20 µM) is 11.2% (inactive).
Turning to `Cc1ccccc1-c1cc2c(nn1)-c1ccccc1C2=O`, the inhibition (EGFP decrease, at 10 µM) was found to be 32.1% and the inhibition (at 20 µM) is 6.4% (inactive).
`O=C(CNC(=O)c1ccco1)NCC(=O)OCc1ccc(Cl)cc1Cl`: the inhibition runs as follows: (EGFP decrease, at 10 µM) -15.3%; (at 20 µM) 6% (inactive).
As for `Cc1nn(CC(=O)NCCN2CCCCC2C)c(=O)c2cc(-c3ccccc3)nn12` (configuration not stated), the inhibition (EGFP decrease, at 10 µM) was found to be 17.6% and the inhibition (at 20 µM) was 1.6% (inactive).
On to `O=C(O)C1=C[C@H](c2cccs2)C[C@H](OCc2ccc(CO)cc2)O1`, for which the inhibition is 3.6% (EGFP decrease, at 10 µM) and -7.3% (inactive) (at 20 µM).
For the molecule `O=c1cc(O)c2c(=O)n(C3CCCCC3)c3ccccc3c2o1`, the inhibition (EGFP decrease, at 10 µM) stood at 2.1% and the inhibition (at 20 µM) is 4.6% (inactive).
In the same order, the values of `CCCCN(CCCC)CCCNC(=O)C12CN(Cc3ccccc3)CC1C(c1cccc([N+](=O)[O-])c1)=NO2` (configuration not stated) are 20.1% and -9.9% (inactive).
As to `CSCCC(CO)NC(=O)OCc1ccccc1` (configuration not stated), the inhibition was 10.8% (EGFP decrease, at 10 µM) and -23.3% (inactive) (at 20 µM).
On to `C=CCCC(=O)N1CCCC(C(=O)c2cccc(OC)c2)C1` (configuration not stated), for which the inhibition by setting is: (EGFP decrease, at 10 µM) 20.8%; (at 20 µM) 2.3% (inactive).
On to `Cc1cc(C)n2nc(SCC(=O)c3ccccc3)nc2n1`, for which the inhibition was 23.7% (EGFP decrease, at 10 µM) and 31% (at 20 µM).
In the case of `CC1CC(C)CN(C(=O)C2CCN(S(=O)(=O)c3cccs3)CC2)C1` (configuration not stated), the inhibition is 1.5% (EGFP decrease, at 10 µM) and 8.5% (inactive) (at 20 µM).
As for `CC(C)c1ccc(/C=N/NC(=O)c2cccc(Cl)c2)cc1`, the inhibition is, setting by setting: (EGFP decrease, at 10 µM) 16.9%; (at 20 µM) 44.6%.
The corresponding values for `COc1cc(OC)cc(C(=O)NCC(=O)OCC(=O)N2CCc3ccccc32)c1` are 8.9% and 20.7% (inactive).
With `Nc1ccc(C(=O)N2N=C(c3ccccc3)CC2(O)C(F)(F)F)cc1` (configuration not stated), the inhibition is 28.6% (EGFP decrease, at 10 µM) and 4.3% (inactive) (at 20 µM).
The corresponding values for `O=[N+]([O-])c1ccc(-c2nnc(CNC3CCCC3)o2)cc1` are 17.3% and 25.1% (inactive).
Regarding `CCOc1ccc(C(=O)N2CCc3cc(OC)c(OC)cc3C2)cc1OCC`, the inhibition is 9.7% (EGFP decrease, at 10 µM) and 4.7% (inactive) (at 20 µM).
Consider `CCOc1ccccc1N1CCN(C(=O)c2cc(-c3cc(OC)ccc3OC)nc3ccccc23)CC1`, for which the inhibition reads like this: (EGFP decrease, at 10 µM) 20.9%; (at 20 µM) 24.9% (inactive).
As to `O=C(N/N=C/c1cccc(O)c1)c1ccc(COc2cccc3cccnc23)cc1`, the inhibition by setting is: (EGFP decrease, at 10 µM) 2.4%; (at 20 µM) 7.8% (inactive).
The corresponding values for `Cc1cc2nnc(SCC(=O)N3CCOCC3)n2c2ccccc12` are 26.4% and 17.9% (inactive).
As for `Cn1c(O)c(C=NC2CCCCCC2)c(=O)[nH]c1=S`, the inhibition (EGFP decrease, at 10 µM) was 0.3% and the inhibition (at 20 µM) was 7.6% (inactive).
With `O=c1c2ccccc2nc(-c2ccccc2)n1-c1ccncc1`, the inhibition is -29.4% (EGFP decrease, at 10 µM) and 24.7% (inactive) (at 20 µM).
For the molecule `COc1ccc(S(=O)(=O)N2CCOC2CNC(=O)C(=O)NCc2ccncc2)cc1` (configuration not stated), the inhibition (EGFP decrease, at 10 µM) was -30.4% and the inhibition (at 20 µM) was 8.6% (inactive).
Regarding `O=C(CS(=O)CC(=O)Nc1ccccc1-c1ccccc1)Nc1ccc(F)cc1` (configuration not stated), the inhibition (EGFP decrease, at 10 µM) is -0.9% and the inhibition (at 20 µM) was 13.9% (inactive).
On to `CC(=O)N/C(=C/c1ccc2c(c1)OCO2)C(=O)NCCCO`, for which the inhibition is 1.2% (EGFP decrease, at 10 µM) and 2% (inactive) (at 20 µM).
For the molecule `CC(Oc1ccc(F)cc1)C(=O)/C=C\N(C)C` (configuration not stated), the inhibition runs as follows: (EGFP decrease, at 10 µM) 8.4%; (at 20 µM) 0% (inactive).
With `CNc1cc(C(F)(F)F)nc(-c2ccccn2)n1`, the inhibition runs as follows: (EGFP decrease, at 10 µM) -1.6%; (at 20 µM) 22.4% (inactive).
As to `COc1ccc(OC)c(NS(=O)(=O)c2c(C(=O)N3CCCCCC3)c(C)n(C)c2C)c1`, the inhibition is 32.8% (EGFP decrease, at 10 µM) and 15.9% (inactive) (at 20 µM).
Consider `CC(=O)N1c2c(cc(Br)cc2S(=O)(=O)NCc2ccccc2)CC1C` (configuration not stated), for which the inhibition was 26.4% (EGFP decrease, at 10 µM) and 20.8% (inactive) (at 20 µM).
`O=S(=O)(NCC1CCCO1)c1cccc(C(F)(F)F)c1` (configuration not stated): the inhibition was 7.7% (EGFP decrease, at 10 µM) and 11.7% (inactive) (at 20 µM).
In the case of `CN1CCn2c1nc(N1CCCCC1)nc2=O`, the inhibition (EGFP decrease, at 10 µM) stood at 14.7% and the inhibition (at 20 µM) was 16.5% (inactive).
In the same order, the values of `O=C1c2ccccc2C(=O)C1c1ccc2ccccc2n1` are 1.9% and -11.6% (inactive).
For the molecule `CCCc1nc(NCC2CCCO2)c2nnn(Cc3ccccc3)c2n1` (configuration not stated), the inhibition by setting is: (EGFP decrease, at 10 µM) 39%; (at 20 µM) 12.1% (inactive).
On to `CCCC(=O)Nn1cnc2c(c1=O)C1(CCCCC1)Cc1ccccc1-2`, for which the inhibition is -8.7% (EGFP decrease, at 10 µM) and 4% (inactive) (at 20 µM).
`O=c1c(Br)c(Br)cnn1-c1ccccc1`: the inhibition by setting is: (EGFP decrease, at 10 µM) 14.6%; (at 20 µM) 29.7% (inactive).
On to `Cc1ccc(S(=O)(=O)N(C)c2ccc(C(=O)NCc3cccnc3)cc2)cc1`, for which the inhibition (EGFP decrease, at 10 µM) is -13.7% and the inhibition (at 20 µM) is -8.4% (inactive).
Turning to `Cn1nc(-c2ccccn2)nc2c(=O)n(C)c(=O)nc1-2`, the inhibition was 61.5% (EGFP decrease, at 10 µM) and 45.6% (at 20 µM).
For `C/C(N)=C(/C#N)C(=O)CSc1nnnn1-c1ccc(C)cc1C`, the inhibition was 18% (EGFP decrease, at 10 µM) and 3.2% (inactive) (at 20 µM).
As for `CC(C)=CC(=O)Nc1ccccc1Br`, the inhibition is, setting by setting: (EGFP decrease, at 10 µM) 26.1%; (at 20 µM) 12.9% (inactive).
In the case of `Cc1ccc(NC(=S)Nc2cccc3cnccc23)cc1`, the inhibition by setting is: (EGFP decrease, at 10 µM) 2.1%; (at 20 µM) 26.8% (inactive).
On to `CCCCOc1ccc(/C(O)=C2/C(=O)C(=O)N(CCCOC)C2c2ccncc2)cc1` (configuration not stated), for which the inhibition reads like this: (EGFP decrease, at 10 µM) 5.3%; (at 20 µM) -10.4% (inactive).
As to `COC(=O)COc1ccc(Oc2nc(SC)nc(N(C)C)n2)nn1`, the inhibition is 34.2% (EGFP decrease, at 10 µM) and 29.7% (inactive) (at 20 µM).
As for `Cc1ccc(S(=O)(=O)Nc2cccc(-c3cn4ccsc4n3)c2)cc1`, the inhibition was 31% (EGFP decrease, at 10 µM) and 10.2% (inactive) (at 20 µM).
For the molecule `COc1ccc(N2CCN(C(=O)c3cn(C)c(=O)c4c3c3ccccc3n4C)CC2)cc1`, the inhibition is 6.2% (EGFP decrease, at 10 µM) and 20.1% (inactive) (at 20 µM).
With `O=C(Nc1ccc(F)cc1)Nc1nnc(-c2ccco2)s1`, the inhibition reads like this: (EGFP decrease, at 10 µM) 12%; (at 20 µM) -2.8% (inactive).
For the molecule `CCOC(=O)c1c(C)oc2c(F)c(F)c(F)c(F)c2c1=O`, the inhibition (EGFP decrease, at 10 µM) is 32.1% and the inhibition (at 20 µM) was 19.8% (inactive).
In the case of `CC(C)[C@H](NC(=O)c1ccc(F)cc1)C(=O)NC1=NCCS1`, the inhibition reads like this: (EGFP decrease, at 10 µM) 21.6%; (at 20 µM) 2.2% (inactive).
`CC(Nc1cc(N2CCN(S(=O)(=O)N(C)C)CC2)ccc1[N+](=O)[O-])c1ccccc1` (configuration not stated): the inhibition was 7.3% (EGFP decrease, at 10 µM) and 23.9% (inactive) (at 20 µM).
Regarding `O=C(Nc1cccnc1)c1ccc(Cl)c(S(=O)(=O)N2CCCCCC2)c1`, the inhibition reads like this: (EGFP decrease, at 10 µM) 28.5%; (at 20 µM) -6.9% (inactive).
For the molecule `O=C(COc1ccc(F)cc1)Nc1nc2c(s1)CCCC2`, the inhibition reads like this: (EGFP decrease, at 10 µM) 26.7%; (at 20 µM) 24% (inactive).
With `CC1CC(C)CN(c2ccc(NS(=O)(=O)c3ccccc3)cc2C(=O)O)C1` (configuration not stated), the inhibition runs as follows: (EGFP decrease, at 10 µM) 9.8%; (at 20 µM) 2.9% (inactive).
Take `O=C(NCc1ccncc1)c1cc(C(=O)C2CCCCC2)c[nH]1`: the inhibition by setting is: (EGFP decrease, at 10 µM) -25%; (at 20 µM) 31.5%.
`O=C(NNS(=O)(=O)c1ccc(F)cc1)C1CCN(S(=O)(=O)c2ccccc2)CC1`: the inhibition is -22.3% (EGFP decrease, at 10 µM) and -6.1% (inactive) (at 20 µM).
`Cc1cc(CN(C)C(=O)c2ccc3nc(Cc4ccccc4F)oc3c2)on1`: the inhibition by setting is: (EGFP decrease, at 10 µM) 21.3%; (at 20 µM) 8.5% (inactive).
In the same order, the values of `CCOc1ccc(NC(=O)CSc2nc3ccccc3c(=O)n2CCNC(C)=O)cc1` are 13.6% and 15% (inactive).
Take `CC(CN1CCOCC1)OC(=O)C(C)(c1ccccc1)c1ccccc1` (configuration not stated): the inhibition runs as follows: (EGFP decrease, at 10 µM) -14.9%; (at 20 µM) -4.6% (inactive).
Take `CC(=O)c1ccc2c(c1)OCO2`: the inhibition was 5.1% (EGFP decrease, at 10 µM) and 25.1% (inactive) (at 20 µM).
Turning to `CCC1CCCCN1C(=O)NC(=O)c1ccccc1` (configuration not stated), the inhibition is, setting by setting: (EGFP decrease, at 10 µM) 14.3%; (at 20 µM) 5.4% (inactive).
`O=C(CN1CCC(n2nnc3cc(F)ccc32)CC1)NC1CC1`: the inhibition reads like this: (EGFP decrease, at 10 µM) -7.1%; (at 20 µM) -1.4% (inactive).
With `Cc1ccsc1C(=O)OCC(=O)N1CCc2ccccc2C1`, the inhibition runs as follows: (EGFP decrease, at 10 µM) 5%; (at 20 µM) 13.3% (inactive).
Take `Cc1cc(/N=C/N(C)C)on1`: the inhibition (EGFP decrease, at 10 µM) is 20.8% and the inhibition (at 20 µM) was -23.7% (inactive).
With `COc1ccc([N+](=O)[O-])cc1NC(=O)c1cccs1`, the inhibition is, setting by setting: (EGFP decrease, at 10 µM) 18.4%; (at 20 µM) 8.7% (inactive).
For the molecule `CC(CCc1ccccc1)NC(=O)CNC(=O)COc1ccccc1` (configuration not stated), the inhibition was -4.8% (EGFP decrease, at 10 µM) and 28.2% (inactive) (at 20 µM).
Turning to `Cc1cc(C)cc(N2C(=O)N(c3ccccc3C)C3CS(=O)(=O)CC32)c1` (configuration not stated), the inhibition was 9.1% (EGFP decrease, at 10 µM) and 28.7% (inactive) (at 20 µM).
